Test results from publication PMC12019622 (World Journal of Experimental Medicine, 2025).
Blank lines part the entries; values can stand above or below the molecule they belong to.

Columns and labels:
Malignant meningioma = conditions: clinical, cited from earlier work; for partial response (PR) rate: malignant meningioma
[1] = Tissue distribution: blood concentration and brain distribution by HPLC; type: in vivo, C57BL/6 (B6) mice; conditions: male, C57BL/6, mouse, intraperitoneal, 2 mg/kg
[2] = system: IOMM-Lee malignant meningioma cell line; experiment: Growth inhibition experiment; type: cell-based; conditions: read-out: IC50 value
[3] = system: HKBMM malignant meningioma cell line; experiment: Growth inhibition experiment; type: cell-based; conditions: read-out: IC50 value
[4] = system: blood-brain barrier (BBB); conditions: cited from earlier work

SMILES: CCN(CC)CCNC(=O)c1c(C)[nH]c(/C=C2\C(=O)Nc3ccc(F)cc32)c1C [Sunitinib]
- 6-month progression-free survival rate (Malignant meningioma; meningioma): 42%
- PR rate (Malignant meningioma; meningioma): 5.55%

- concentration at 1 h ([1]; brain): 0 ng/g
- concentration at 3 h ([1]; brain): 26.8 ng/g
- concentration at 6 h ([1]; brain): 23.1 ng/g
- concentration at 1 h ([1]; serum): 18 ng/mL
- concentration at 3 h ([1]; serum): 46.7 ng/mL
- concentration at 6 h ([1]; serum): 58.2 ng/mL
SMILES: COCOc1cc(/C=C/C(=O)/C=C/c2cc(OCOC)cc(OCOC)c2)cc(OCOC)c1 [GO-Y030, (1E,4E)-1,5-bis [3,5-bis (methoxymethoxy)phenyl] penta-1,4-dien-3-one]

- IC50 [2]: 4.3 µM
- IC50 [3]: 4.5 µM
SMILES: COc1cc(C=CC(=O)C=Cc2ccc(O)c(OC)c2)ccc1O [GO-Y022, 1,5-bis (4-hydroxy-3-methoxyphenyl)-1,4-pentadiene-3-one]
- permeability across the blood-brain barrier (BBB) [4]: 8.2 ± 1.3 × 10^−6 cm/s

SMILES: CC/C(=C(\c1ccccc1)c1ccc(OCCN(C)C)cc1)c1ccccc1 [tamoxifen]
- partial response (PR) rate (Malignant meningioma): 5%-16.66%

SMILES: CC#C[C@]1(O)CC[C@H]2[C@@H]3CCC4=CC(=O)CCC4=C3[C@@H](c3ccc(N(C)C)cc3)C[C@@]21C [mifepristone]
- partial response (PR) rate (Malignant meningioma): 1.4%-30.76%

- IC50 [2]: 13.3 µM
- IC50 [3]: 20 µM
SMILES: COc1cc(/C=C/C(=O)CC(=O)/C=C/c2ccc(O)c(OC)c2)ccc1O [curcumin, Curcumin, reference compound]
- permeability across the blood-brain barrier (BBB) [4]: 0.60 ± 0.67 × 10^−6 cm/s

SMILES: NC(=O)NO [hydroxyurea]
- partial response (PR) rate (Malignant meningioma): 0%-10%
